Calls of active or inactive are those of the source. The calls are words filed in the database; no cut-off is given here.
What was measured:
[1] = target: T1, Transient receptor potential cation channel subfamily A member 1 (Homo sapiens, UniProt O75762); assay: Inhibition of human TRPA1 expressed in HEK293 cells assessed as decrease in AITC-induced calcium influx at 30 uM preincubated for 6 mins followed by AITC addition measured for 1 min by Fluo-4 dye-based assay relative to resveratrol; assay type: cell-based
[2] = target: T1, Transient receptor potential cation channel subfamily A member 1; assay: Agonist activity at human TRPA1 expressed in HEK293 cells assessed as induction of calcium influx at 30 uM after 6 mins by Fluo-4 dye-based assay relative to AITC; assay type: cell-based; settings: hek293, 0.1 h
[3] = target: T1, Transient receptor potential cation channel subfamily A member 1; assay: Agonist activity at human TRPA1 expressed in HEK293 cells assessed as induction of calcium influx at 30 uM after 6 mins by Fluo-4 dye-based assay; assay type: cell-based
[4] = target: T1, Transient receptor potential cation channel subfamily A member 1; assay: Inhibition of human TRPA1 expressed in HEK293 cells assessed as decrease in AITC-induced calcium influx at 30 uM preincubated for 6 mins followed by AITC addition measured for 1 min by Fluo-4 dye-based assay relative to control; assay type: cell-based
[5] = target: T1, Transient receptor potential cation channel subfamily A member 1; assay: Inhibition of human TRPA1 expressed in HEK293 cells assessed as decrease in AITC-induced calcium influx preincubated for 6 mins followed by AITC addition measured for 1 min by Fluo-4 dye-based assay; assay type: cell-based
[6] = target: T1, Transient receptor potential cation channel subfamily A member 1; assay: Inhibition of human TRPA1 expressed in HEK293 cells assessed as decrease in AITC-induced calcium influx at 10 uM preincubated for 6 mins followed by AITC addition measured for 1 min by Fluo-4 dye-based assay relative to control; assay type: cell-based
[7] = target: T1, Transient receptor potential cation channel subfamily A member 1; assay: Desensitization of human TRPA1 expressed in HEK293 cells assessed as decrease in AITC-induced inward current response at -60 mV holding potential preincubated for 1 min followed by AITC induction for 1 min by whole-cell patch-clamp assay; assay type: cell-based
[8] = target: T1, Transient receptor potential cation channel subfamily A member 1; assay: Inhibition of human TRPA1 expressed in HEK293 cells assessed as decrease in AITC-induced calcium influx at 3 uM preincubated for 6 mins followed by AITC addition measured for 1 min by Fluo-4 dye-based assay relative to control; assay type: cell-based
Rattus norvegicus [9] = assay: Antinociceptive activity in Sprague-Dawley rat assessed as decrease in paw-licking time at 2 mM administered intraplantarly for 5 mins followed by AITC addition measured for 5 mins; assay type: functional
[10] = target: T2, Transient receptor potential cation channel subfamily A member 1 (Rattus norvegicus, UniProt Q6RI86); assay: Activation of TRPA1 in Sprague-Dawley rat DRG neuron assessed as induction of current response at -60 mV holding potential at 30 uM incubated for 30 secs by whole-cell patch-clamp assay; settings: 0.5 min
[11] = target: T1, Transient receptor potential cation channel subfamily A member 1; assay: Activation of human TRPA1 expressed in HEK293 cells assessed as induction of inward current response at -60 mV holding potential at 5 uM incubated for 1 min by whole-cell patch-clamp assay; assay type: cell-based; settings: hek293, 1 min
Rattus norvegicus [12] = assay: Induction of nocifensive behavior in Sprague-Dawley rat at 2 mM administered intraplantarly for 5 mins; settings: in vivo, other, 2000 µM
[13] = target: T1, Transient receptor potential cation channel subfamily A member 1; assay: Agonist activity at human TRPA1 expressed in HEK293 cells assessed as induction of inward current response at 10 uM in presence of TRPA1 antagonist HC-030031 by whole-cell patch-clamp assay; assay type: cell-based; settings: hek293, 10 µM
[14] = target: T1, Transient receptor potential cation channel subfamily A member 1; assay: Agonist activity at human TRPA1 expressed in HEK293 cells assessed as induction of inward current response by whole-cell patch-clamp assay; assay type: cell-based
HEK293 = assay: Induction of current response in HEK293 cells at 10 uM by whole-cell patch-clamp assay; assay type: cell-based; settings: human, hek293, 10 µM
[15] = target: T2, Transient receptor potential cation channel subfamily A member 1; assay: Activation of TRPA1 in Sprague-Dawley rat DRG neuron assessed as induction of current response at -60 mV holding potential at 300 uM incubated for 30 secs by whole-cell patch-clamp assay; settings: 0.5 min
[16] = target: T1, Transient receptor potential cation channel subfamily A member 1; assay: Inhibition of human TRPA1 expressed in HEK293 cells assessed as decrease in AITC-induced current response by whole cell patch clamp method; assay type: cell-based
[17] = target: T2, Transient receptor potential cation channel subfamily A member 1; assay: Activation of TRPA1 in Sprague-Dawley rat DRG neuron assessed as induction of current response at -60 mV holding potential at 1 uM incubated for 30 secs by whole-cell patch-clamp assay; settings: 0.5 min
[18] = target: T1, Transient receptor potential cation channel subfamily A member 1; assay: Inhibition of TRPA1 (unknown origin)

T2 sequence (Q6RI86 whole entry): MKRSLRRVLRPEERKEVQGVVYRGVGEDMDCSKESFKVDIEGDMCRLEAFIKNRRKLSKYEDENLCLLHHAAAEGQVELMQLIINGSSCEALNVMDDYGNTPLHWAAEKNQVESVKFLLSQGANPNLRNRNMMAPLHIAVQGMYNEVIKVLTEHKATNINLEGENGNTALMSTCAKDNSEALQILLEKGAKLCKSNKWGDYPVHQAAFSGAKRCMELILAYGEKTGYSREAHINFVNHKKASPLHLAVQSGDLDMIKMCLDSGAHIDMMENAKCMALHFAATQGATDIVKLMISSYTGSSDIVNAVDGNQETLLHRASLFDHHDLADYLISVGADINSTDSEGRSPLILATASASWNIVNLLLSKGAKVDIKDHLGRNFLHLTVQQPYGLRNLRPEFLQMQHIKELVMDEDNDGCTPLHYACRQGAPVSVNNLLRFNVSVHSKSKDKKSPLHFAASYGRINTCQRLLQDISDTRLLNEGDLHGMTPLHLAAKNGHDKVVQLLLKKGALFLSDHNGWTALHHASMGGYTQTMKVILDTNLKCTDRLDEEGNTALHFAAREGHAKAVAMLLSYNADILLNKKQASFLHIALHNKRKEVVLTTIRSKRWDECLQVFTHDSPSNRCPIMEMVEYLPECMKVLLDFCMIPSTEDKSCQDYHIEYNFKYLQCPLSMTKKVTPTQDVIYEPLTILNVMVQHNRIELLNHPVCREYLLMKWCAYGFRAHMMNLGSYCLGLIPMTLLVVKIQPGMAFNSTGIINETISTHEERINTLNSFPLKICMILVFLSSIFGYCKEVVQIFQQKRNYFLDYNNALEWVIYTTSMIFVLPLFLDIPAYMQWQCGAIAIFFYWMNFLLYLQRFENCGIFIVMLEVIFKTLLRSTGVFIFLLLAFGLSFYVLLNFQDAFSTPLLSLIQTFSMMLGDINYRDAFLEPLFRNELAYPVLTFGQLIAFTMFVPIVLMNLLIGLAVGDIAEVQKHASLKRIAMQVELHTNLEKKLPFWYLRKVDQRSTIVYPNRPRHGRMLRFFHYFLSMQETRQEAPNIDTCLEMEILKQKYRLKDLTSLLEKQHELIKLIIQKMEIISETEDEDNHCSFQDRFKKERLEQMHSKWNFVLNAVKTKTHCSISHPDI
T1 sequence (O75762 whole entry): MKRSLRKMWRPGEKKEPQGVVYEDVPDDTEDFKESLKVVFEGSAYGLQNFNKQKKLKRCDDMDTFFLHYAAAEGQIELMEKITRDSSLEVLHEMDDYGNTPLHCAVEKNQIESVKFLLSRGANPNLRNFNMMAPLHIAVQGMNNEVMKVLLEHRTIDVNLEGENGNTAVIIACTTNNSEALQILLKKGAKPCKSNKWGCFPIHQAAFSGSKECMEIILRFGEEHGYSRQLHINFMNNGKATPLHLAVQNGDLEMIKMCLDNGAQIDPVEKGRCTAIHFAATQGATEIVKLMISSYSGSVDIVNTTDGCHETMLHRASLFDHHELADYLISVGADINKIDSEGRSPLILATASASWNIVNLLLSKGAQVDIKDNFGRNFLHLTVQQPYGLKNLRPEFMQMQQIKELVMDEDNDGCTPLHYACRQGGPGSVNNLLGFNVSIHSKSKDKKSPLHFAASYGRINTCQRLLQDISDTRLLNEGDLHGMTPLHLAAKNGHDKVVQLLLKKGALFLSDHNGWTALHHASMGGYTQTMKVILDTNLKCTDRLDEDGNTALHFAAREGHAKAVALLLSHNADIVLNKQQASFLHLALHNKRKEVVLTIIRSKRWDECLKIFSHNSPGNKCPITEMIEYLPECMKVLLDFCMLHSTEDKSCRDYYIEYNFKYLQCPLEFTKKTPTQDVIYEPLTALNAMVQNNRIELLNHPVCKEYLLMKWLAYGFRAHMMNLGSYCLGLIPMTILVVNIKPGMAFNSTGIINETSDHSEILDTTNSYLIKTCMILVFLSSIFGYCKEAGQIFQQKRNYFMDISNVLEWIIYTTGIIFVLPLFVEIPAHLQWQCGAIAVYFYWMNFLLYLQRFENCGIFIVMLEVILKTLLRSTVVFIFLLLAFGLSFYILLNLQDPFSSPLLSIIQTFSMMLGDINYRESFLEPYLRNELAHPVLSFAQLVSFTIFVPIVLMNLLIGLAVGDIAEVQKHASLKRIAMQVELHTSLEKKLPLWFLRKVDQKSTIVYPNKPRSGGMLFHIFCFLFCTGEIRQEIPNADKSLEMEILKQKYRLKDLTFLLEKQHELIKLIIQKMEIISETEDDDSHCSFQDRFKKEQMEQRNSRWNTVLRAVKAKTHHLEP

Row | SMILES | fold change (FC) [1] | fold change (FC) [2] | also measured
1 | Oc1cc(O)cc(/C=C/c2ccccc2O)c1 | 0.6 | 0.4 | –
2 | COCOc1ccc(/C=C/c2cc(OCOC)cc(OCOC)c2)cc1 | 0.4 | 0.5 | –
3 | CC(C)(C)/C=C/c1cc(O)cc(O)c1 | 0.8 | 0.3 | –
4 | Oc1cccc(/C=C/c2cc(O)cc(O)c2)c1 | 0.8 | 0.4 | EC50 [3]: > 30 µM; inhibition [4]: 1.4%; IC50 [5]: > 30 µM
5 | CCCOc1ccc(/C=C/c2cc(O)cc(O)c2)cc1 | 0.1 | 0.3 | –
6 | Oc1cc(O)cc(/C=C/c2ccc3c(c2)OCO3)c1 | 0.6 | 0.3 | –
7 | Oc1cc(O)cc(/C=C/c2ccc(OCC3CCCCC3)cc2)c1 | -0.1 | 0.4 | –
8 | Oc1ccc(/C=C/c2cc(Br)c(O)c(Br)c2)cc1 | 1.4 | 0.5 | EC50 [3]: > 10 µM; inhibition [4]: 66.7%; inhibition [6]: 37.3%; Activity [7]: Dose-dependent effect; inhibition [8]: 14%; Activity (Rattus norvegicus [9]): Active; Activity [10]: Active; Activity [11]: Active; IC50 [5]: 16.1 µM; Activity (Rattus norvegicus [12]): Non-Toxic; Activity [13]: Dose-dependent effect; Activity [14]: Not Active; Activity (HEK293): Non-Toxic
9 | Oc1cc(O)cc(/C=C/c2cc(O)c(O)c(O)c2)c1 | 0.4 | 0.3 | –
10 | COc1ccc(NC(=O)c2cc(O)cc(O)c2)cc1 | -0.4 | 0.3 | EC50 [3]: > 30 µM; inhibition [4]: 11.8%; inhibition [6]: -8.2%; inhibition [8]: -5.9%; IC50 [5]: > 30 µM
11 | COc1ccc(/C=C/c2cc(O)cc(O)c2)cc1 [RESVERATROL 4'-METHYL ETHER] | 0.3 | 0.3 | –
12 | COc1ccc(/C=C/c2cc(O)cc(O)c2)cc1OC [RHAPONTIGENIN] | 0.4 | – | –
13 | Oc1cc(O)cc(/C=C/C2CCCCC2)c1 | 0.5 | 0.3 | –
14 | O=C(Nc1ccc(O)cc1)c1cc(O)cc(O)c1 | -0.6 | 0.3 | –
15 | CCCOc1ccc(/C=C/c2cc(OCCC)cc(OCCC)c2)cc1 | -0.1 | 0.3 | –
16 | COc1cc(/C=C/c2ccccc2)cc(OC)c1 [3,5-O-DIMETHYLPINOSYLVIN] | 0.5 | 0.6 | –
17 | Oc1cc(O)cc(/C=C/c2ccccc2)c1 [PINOSYLVIN] | -0.1 | 0.4 | –
18 | CC(=O)Oc1ccc(/C=C/c2cc(OC(C)=O)cc(OC(C)=O)c2)cc1 [TRIACETYLRESVERATROL] | 0.5 | 0.5 | –
19 | Oc1ccc(/C=C/c2ccccc2)cc1 [(E)-4-STYRYLPHENOL] | 0.1 | 0.4 | –
20 | Clc1cc(Cl)cc(/C=C/c2ccccc2)c1 | 0.7 | 0.3 | EC50 [3]: > 30 µM; inhibition [4]: 8.4%; inhibition [6]: 6.2%; IC50 [5]: > 30 µM

Row | SMILES | fold change (FC) [1] | fold change (FC) [2] | also measured
21 | Oc1cc(O)cc(/C=C/c2ccc(OCc3ccccc3)cc2)c1 | 0.7 | 0.3 | –
22 | C=CCN=C=S [ALLYL ISOTHIOCYANATE] | – | – | Activity [15]: Active
23 | Oc1cc(O)cc(/C=C/c2cccc3ccccc23)c1 | 1.1 | 0.3 | –
24 | Oc1ccc(/C=C/c2cc(O)cc(O)c2)cc1 [RESVERATROL] | – | 0.4 | EC50 [3]: > 30 µM; inhibition [4]: 37.5%; inhibition [6]: 2.5%; inhibition [8]: -3.8%; IC50 [5]: > 30 µM; IC50 [16]: 0.75 µM
25 | COc1ccc(/C=C/c2cc(OC)cc(OC)c2)cc1 [TRISMETHOXYRESVERATROL] | 0.3 | 0.3 | –
26 | Clc1ccc(/C=C/c2cc(Cl)cc(Cl)c2)cc1 | 0.8 | 0.3 | EC50 [3]: > 30 µM; inhibition [4]: 20.6%; inhibition [6]: 7.2%; inhibition [8]: 3%; IC50 [5]: > 30 µM
27 | COc1cc(CNC(=O)CCCC/C=C/C(C)C)ccc1O [CAPSAICIN] | – | – | Activity [17]: Active
28 | CCOc1ccc(/C=C/c2cc(O)cc(O)c2)cc1 | -0.2 | 0.3 | –
29 | CCCCCCOc1ccc(/C=C/c2cc(O)cc(O)c2)cc1 | 0.1 | 0.5 | –
30 | Oc1cc(O)cc(/C=C/c2ccc(O)c(O)c2)c1 [PICEATANNOL] | 0 | 0.3 | –
31 | Clc1ccc(/C=C/c2ccccc2)cc1 | -0.2 | 0.3 | –
32 | COc1ccccc1/C=C/c1ccccc1 | 0.3 | 0.4 | IC50 [18]: 1.7 to 2.2 µM
33 | Oc1ccc(CCc2cc(O)cc(O)c2)cc1 [DIHYDRORESVERATROL] | 1.2 | 0.4 | EC50 [3]: > 30 µM; inhibition [6]: 1.2%; IC50 [5]: > 30 µM
34 | Oc1cc(O)cc(/C=C/c2cc(Br)c(O)c(Br)c2)c1 | 0.8 | 0.3 | –
35 | COc1cc(O)cc(/C=C/c2ccccc2)c1 [PINOSYLVIN METHYL ETHER] | 0.6 | 0.7 | –
36 | Oc1ccccc1/C=C/c1ccccc1 | 1.1 | 0.6 | EC50 [3]: > 10 µM; inhibition [4]: -9.5%; inhibition [6]: -5%; inhibition [8]: -1.9%; IC50 [5]: > 30 µM; IC50 [18]: 1.7 to 2.2 µM
37 | Oc1ccc(/C=C/c2ccc(O)c(O)c2)cc1 | -0.3 | 0.4 | –
38 | CCOc1ccc(/C=C/c2cc(OCC)cc(OCC)c2)cc1 | 0.4 | 0.4 | –
39 | Oc1cc(O)cc(/C=C/c2ccc(Cl)cc2)c1 | 0.5 | 0.3 | EC50 [3]: > 30 µM; inhibition [4]: 18.6%; inhibition [6]: 5.6%; inhibition [8]: 6.1%; IC50 [5]: > 30 µM
40 | Oc1ccc(-c2cc(O)cc(O)c2)cc1 | 0.8 | 0.5 | –

Reference: ChEMBL document CHEMBL4020807, “Synthesis of resveratrol derivatives as new analgesic drugs through desensitization of the TRPA1 receptor” (Bioorg Med Chem Lett, 2017)
